The test system of one assay is PBMCs or CBMCs. Briefly: Quantitative RT-PCR of TNFα, IFNα and CXCL10 mRNA. Type of assay: cell-based, human. Particulars: CBMCs vs PBMCs. As for the experimental part: Poly(I:C) (5 μg/ml) (Invivogen), Poly(dA:dT) (5 μg/ml) (Sigma-Aldrich), 2′3′ cGAMP (10 μg/ml), 5′ triphosphate double stranded RNA (5′ ppp dsRNA) (2.5 μg/ml) and HSV-60 (2 μg/ml) (all from Invivogen) were transfected into PBMCs or CBMCs using TransIT-X2 (Mirus).
Quantitative RT-PCR—Total RNA from PBMCs or CBMCs was extracted using trizol extraction as previously described (16) and was reverse transcribed using MMLV Reverse Transcriptase (Promega) according to the manufacturer's protocol. This cDNA served as template for amplification of target genes, along with the ‘housekeeping’ gene βActin, by real-time PCR with SensiFast SYBR Green (Bioline) to determine the relative amounts of CXCL10, IFNα and TNFα mRNA. The ABI 7900HT system (Applied Biosystems) was used for real-time PCR, and the cycling threshold method (2^−(ΔΔCt)) was used for relative quantification by comparative method after normalization to βActin expression.

A further assay concerns bovine PBMCs. Kind of assay: Bovine IL-1β ELISA on stimulated PBMCs. It is filed as cell-based, cattle. Particulars: for IL-1β secretion by bovine PBMCs in the absence of LPS priming: polydA:dT 5, 2 or 1 μg/ml or alum 50 μg/ml. As for the experimental part: Bovine peripheral blood mononuclear cells were isolated from whole blood samples collected in 9m1 vacutainers containing Heparin anticoagulant. PBMCs were spun and separated using leucosep tubes (Cruinn) and a density gradient histopaque 1077 (Sigma-Aldrich) at a speed of 1200 g for 20 minutes. Red blood cell contamination was eliminated using sterile 0.25% sodium chloride (Baxter) as a lysis buffer. The cells were subsequently washed twice in PBS at a speed of 600 g for 10 minutes to remove impurities.
Cells were counted using a haemocytometer, microscope and trypan blue (Sigma Aldrich) and seeded at appropriate densities in tissue culture plates (Cruinn) containing media. The cells were incubated at 37° C. at 5% CO2 treated within hours of plating to avoid unwanted cell death.
[…] This concentration was selected after testing effects of a range of different LPS concentrations ranging from 1 pg/ml-1 μg/ml. […] Similar to LPS, adjuvant concentrations were selected after testing multiple different doses. After stimulation, the cells were cultured for an additional 24 hours. Supernatants were harvested and stored at −20° C. for further analysis.
Capture antibodies (50 μl/well), diluted in the appropriate buffers, were dispensed into the wells of high binding plates (Greiner Bio-One) and incubated overnight at room temperature or 4° C. For analysis of IL-17, the ELISA plates were pre-coated with capture antibody by the manufacturing before delivery. The wells were washed with PBS/Tween 3 times and the plates were then incubated with 150 μl of blocking buffer for 1 hour at room temperature. The plates were washed again before supernatant (neat or diluted) and recombinant standards were added for 1 hour at room temperature. Following this, the plates were washed and 50 μl of detection antibody was added to the wells for a period of 1 or 2 hours at room temperature. After washing, 50 μl diluted streptavidin-HRP was added to the plate for between 30 minutes and 1 hour. After the final wash, 50 μl of 3,3′-, 5,5′-Tetramethylbenzidine (TMB) substrate was added and the plates were incubated in the dark. The reaction was stopped by addition of 1M sulphuric acid and the absorbance readings were measured at 450 nm using a microtitre plate reader. The cytokine concentrations were calculated using a linear regression standard curve from recombinant cytokines of known concentration. Skanit™ software was used to estimate values.

“Also recorded” adds a separate entry of the source.

On to “poly(deoxyadenylic-thymidylic) acid [Poly(dA:dT)]”, for which the “CXCL10 mRNA expression” value in the assay with PBMCs or CBMCs (4 h) is “no inhibition of transcription”. Besides, the “IFNα mRNA expression” value with PBMCs or CBMCs (24 h) is “no inhibition of transcription”. The “TNFα mRNA expression” value in the assay with PBMCs or CBMCs (CNA 4 h, LPS 2 h) was “no significant difference in TNFα levels”. Also, in the assay with bovine PBMCs, the “IL-1β secretion by bovine cells (priming not given)” value is “enhanced by polydA:dT; also recorded: enhanced IL-1β secretion from bovine cells; also recorded: enhances IL-1β secretion in a NLRP3 independent manner; also recorded: robust driver of IL-1β secretion and IL-18 expression in cattle”. In addition, the “IL-1β secretion by PBMCs from 1 month old calves following LPS priming” value with bovine PBMCs (5 neonatal calves, 24 hours) was “PBMCs from all 5 neonates secreted IL-1β”. Also, the “IL-1β secretion by PBMCs from neonatal (1 month old) calves in the absence of LPS priming” value with bovine PBMCs (5 neonatal calves, 24 hours) is given as “can secrete IL-1β in response to polydA:dT without LPS priming; also recorded: secreted processed IL-1β following polydA:dT stimulation”. Besides, the “IL-1β secretion by bovine PBMCs primed with LPS” value in the assay on bovine PBMCs (LPS 100 pg/ml, polydA:dT 5, 2 or 1 μg/ml, 24 hours) was “secreted IL-1β when stimulated with polydA:dT at various concentrations”. In addition, the “IL-1β secretion by PBMCs from calves at 2 months of age” value in the assay with bovine PBMCs (absence or presence of LPS, 24 hours) was “processed IL-1β was present in supernatants”. For the same substance, the “IL-1β concentrations, presence versus absence of LPS” value in the assay on bovine PBMCs (bovine PBMCs, 24 hours) is “no significant difference in IL-1β concentrations”. The “IL-1β secretion by bovine PBMCs in the absence of LPS priming” value in the assay with bovine PBMCs (24 hours, listed as PolydA:dT) is listed as “capable of driving IL-1β secretion in the absence of priming with LPS”; in the assay on bovine PBMCs (24 hours, listed as polydA:dT), “all calves secreted processed IL-1β”.

The values are drawn from patent US12629415B2, “Vaccine adjuvants” (THE PROVOST, FELLOWS, FOUNDATION SCHOLARS, AND THE OTHER …, priority 2018, dated 2026).
